According to patent publication US5073641A, “Prodrug derivatives of carboxylic acid drugs” (priority 1986, dated 1991):
Converted amounts (≈) assume the structure as drawn. Structures can show the parent of a compound that is named as a salt.

Columns and labels:
[1] = Hydrolysis of ester prodrugs in human plasma solutions (HPLC); settings: for half-life: pH 7.4; for kinetics (order) of hydrolysis in human plasma: 80% human plasma at 37° C., initial concentration about 10^-4 M
Protocol: Solutions of various derivatives of this invention in aqueous buffer solutions or 50-80% human plasma solutions (pH 7.4) were kept at 37° C. The initial concentration of the derivatives was in the range 3×10^-4 -10^-5 M. At various times an aliquot of the solutions was withdrawn and analyzed by HPLC for remaining derivative as well as for parent acid. For the plasma solutions the aliquot withdrawn was deproteinized with methanol, ethanol or acetonitrile and after centrifugation, the clear supernatant was injected on HPLC.
An HPLC method was used for the determination of the ester derivatives and their parent acids. In this method a reversed-phase LiChrosorb RP-8 column (250×4 mm) was eluted at ambient temperature with mixtures of methanol and 0.01M acetate buffer pH 5.0, methanol and 0.01M phosphate buffer pH 4.5 or methanol and 0.02M phosphate buffer pH 3.5. the composition of the eluant was adjusted for each compound in order to provide an appropriate retention time and separation of ester and the corresponding acid. The flow-rate was 0.6-1.6 ml/min and the column effluent was monitored spectrophotometrically at an appropriate wavelength. Quantitation of the compounds was done by measurement of the peak heights in relation to those of standards chromatographed under the same conditions.

[2] = Solubility in water or aqueous solutions; settings: for solubility: water
[3] = cited from earlier work
[4] = cited from earlier work; remark: listed apart in the source
[5] = Stability in acidic media (0.01M HCl); type: physicochemical; settings: 37° C., read-out: hydrolysis in 0.01M HCl
[6] = not given; remark: listed apart in the source
[7] = Hydrolysis in aqueous buffer solution pH 7.4; type: physicochemical; settings: pH 7.4, 37° C., read-out: half-life of hydrolysis in pure buffer solution
[8] = Oral bioavailability study in rabbits (plasma concentrations); type: in vivo

O=C(OCC(=O)N1CCC1)c1ccccc1
half-life ([1]; 50% plasma): 0.83 min | solubility [2]: 5400 µg/mL (≈ 24.6 mM)

O=C(OCC(=O)N1CCCC1)c1ccccc1
half-life ([1]; 50% plasma): 5.7 min | solubility [2]: 6300 µg/mL (≈ 27 mM)

O=C(OCC(=O)N1CCCCC1)c1ccccc1
log P (partition coefficient between octanol and water): 1.95 | half-life ([1]; 50% plasma): 2.5 min | solubility [2]: 780 µg/mL (≈ 3.15 mM)

O=C(OCC(=O)N1CCCCCC1)c1ccccc1
half-life ([1]; 50% plasma): 1 min | solubility [2]: 750 µg/mL (≈ 2.87 mM)

O=C(OCC(=O)N1CCOCC1)c1ccccc1
log P (partition coefficient between octanol and water): 0.90 | half-life ([1]; 50% plasma): 4.9 min | solubility [2]: 4200 µg/mL (≈ 16.8 mM)

O=C(OCC(=O)N1CCC(O)CC1)c1ccccc1
half-life ([1]; 50% plasma): 5.8 min

CC1CCCC(C)N1C(=O)COC(=O)c1ccccc1 (centres unmarked)
half-life ([1]; 50% plasma): 0.4 min | solubility [2]: 150 µg/mL (≈ 0.545 mM)

NC(=O)[C@@H]1CCCN1C(=O)COC(=O)c1ccccc1
log P (partition coefficient between octanol and water): 0.20 | half-life ([1]; 50% plasma): 2.3 min | solubility [2]: 1500 µg/mL (≈ 5.43 mM)

COC(=O)[C@@H]1CCCN1C(=O)COC(=O)c1ccccc1
half-life ([1]; 50% plasma): 1.9 min

O=C(OCC(=O)N1CCCC1=O)c1ccccc1
log P (partition coefficient between octanol and water): 1.83 | half-life ([1]; 50% plasma): 18 min | solubility [2]: 490 µg/mL (≈ 1.98 mM)

CN1CCN(C(=O)COC(=O)c2ccccc2)CC1
half-life ([1]; 50% plasma): 12.7 min | solubility [2]: > 100000 µg/mL

CCOC(=O)c1ccc(N)cc1 [4-Aminobenzoic acid ethyl ester, reference compound]
half-life ([1]; 80% plasma): > 6000 min

COC(=O)c1ccc(O)cc1 [4-Hydroxybenzoic acid methyl ester, reference compound]
half-life ([1]; 80% plasma): > 3000 min

CCOC(=O)[C@H](CCc1ccccc1)N[C@@H](C)C(=O)N1CCC[C@H]1C(=O)O [Enalapril]
availability of the active parent acid ([3]; Todd & Heel, 1986): incomplete availability of the active parent acid | hydrolysis by plasma enzymes / stability in plasma [4]: Plasma enzymes do not hydrolyze the ester

CCN(C)C(=O)COC(=O)c1ccccc1 [Example 9]
half-life ([1]; 50% plasma): 0.1 min

CCN(CC)C(=O)COC(=O)c1ccccc1 [Example 10, 2-(benzoyloxy)-N,N-diethylacetamide]
degraded at 3 h [5]: < 1% | S, solubility in water [6]: 2000 µg/mL | half-life [7]: > 41.7 days

C=CCN(CC=C)C(=O)COC(=O)c1ccccc1 [Example 13]
log P (partition coefficient between octanol and water): 2.34 | S, solubility in water [6]: 710 µg/mL | half-life ([1]; 50% plasma): 0.08 min

CCCCN(CCCC)C(=O)COC(=O)c1ccccc1 [Example 14]
S, solubility in water [6]: 80 µg/mL

CC(C)CN(CC(C)C)C(=O)COC(=O)c1ccccc1 [Example 15]
half-life ([1]; 50% plasma): < 1.5 min | solubility [2]: 81 µg/mL (≈ 0.278 mM)

O=C(OCC(=O)N(CCO)CCO)c1ccccc1 [Example 17, 2-(benzoyloxy)-N-N-(di-β-hydroxyethyl)acetamide]
S, solubility in water [6]: 720000 µg/mL | solubility [2]: > 700000 µg/mL

O=C(OCC(=O)N(C1CCCCC1)C1CCCCC1)c1ccccc1 [Example 20]
half-life ([1]; 50% plasma): 407 min

CN(C)C(=O)CCOC(=O)c1ccccc1 [Example 21]
half-life ([1]; 50% plasma): 5.6 min

CN(C)CCN(C)C(=O)COC(=O)c1ccccc1 [Example 23a]
t1/2, half-life of hydrolysis in 50% human plasma ([1]; 50% human plasma (pH 7.4) at 37° C.): 0.12 min | solubility [2]: > 100000 µg/mL

COCCN(CCOC)C(=O)COC(=O)c1ccccc1 [Example 23b]
half-life ([1]; 50% plasma): 0.25 min

CCN(CC)C(=O)COC(=O)[C@@H](C)c1ccc2cc(OC)ccc2c1 [Example 35, 2-[(+)-6-METHOXY-α-METHYL-2-NAPHTHALENEACETYLOXY]-N,N-[…]]
kinetics (order) of hydrolysis in human plasma [1]: first-order kinetics

CN(CC(N)=O)C(=O)COC(=O)c1ccccc1O [Example 37, 2-[2-HYDROXYBENZOYLOXY]-(N-METHYL-N-CARBAMOYLMETHYL)-ACETAMIDE]
half-life ([1]; plasma): 0.33 min

Br.CCN(CC)C(=O)COC(=O)[C@@H](N)Cc1ccccc1 [Example 38]
kinetics (order) of hydrolysis in human plasma [1]: first-order kinetics

CC(C)Cc1ccc(C(C)C(=O)OCC(=O)N(C)CC(N)=O)cc1 (stereo not drawn) [Example 41, 2-[α-METHYL-4-(2-METHYLPROPYL)BENZENEACETYLOXY]-(N-METHYL-N-CARBAMOYLMETHYL)ACETAMIDE]
half-life ([1]; plasma): 9.6 min

COc1ccc2cc([C@H](C)C(=O)OCC(=O)N(CCO)CCO)ccc2c1 [Example 44, 2-[(+)-6-METHOXY-α-METHYL-2-NAPHTHALENEACETYLOXY]-N,N-(DI-β-HYDROXYETHYL)ACETAMIDE]
absorption following oral administration [8]: efficiently absorbed | conversion of prodrug to naproxen in vivo [8]: rapidly converted back to naproxen in vivo | plasma concentration of intact naproxen prodrug ([8]; equivalent of 4.8 mg/kg naproxen): < 100 ng/mL | solubility in 0.01M HCl relative to parent naproxen ([2]; 0.01M HCl, versus naproxen): more than 20 -fold

CC(C)Cc1ccc(C(C)C(=O)OCC(=O)N(C)CC(=O)NCN2CCOCC2)cc1 (stereo not drawn) [Example 51, 2-[α-METHYL-4-(2-METHYLPROPYL)BENZENEACETYLOXY]-(N-METHYL-N-(N'-MORPHOLINOMETHYLCARBAMOYL)METHYL)ACETAMIDE HYDROCHLORIDE]
half-life ([1]; plasma): 10.8 min

COc1ccc2cc([C@H](C)C(=O)OCC(=O)N(C)C)ccc2c1 [Example 52]
half-life ([1]; plasma): 1.5 min

COc1ccc2cc([C@H](C)C(=O)OCC(=O)N(C)CC(N)=O)ccc2c1 [Example 53]
half-life ([1]; plasma): 2.5 min

CC(C)Cc1ccc(C(C)C(=O)OCC(=O)N(C)C)cc1 (centres unmarked) [Example 54]
half-life ([1]; plasma): 8.6 min

CC(C(=O)OCC(=O)N(C)C)c1cccc(C(=O)c2ccccc2)c1 (centres unmarked) [Example 55]
half-life ([1]; plasma): 1.1 min

CCN(CC)C(=O)COC(=O)C(C)c1cccc(C(=O)c2ccccc2)c1 (centres unmarked) [Example 56]
half-life ([1]; 80% plasma): 0.5 min | half-life ([1]; plasma): 0.5 min

CN(CC(N)=O)C(=O)COC(=O)Cc1ccc(-c2ccccc2)cc1 [Example 57]
half-life ([1]; plasma): 2.1 min

CC(C(=O)OCC(=O)N(C)C)c1ccc(-c2ccccc2)c(F)c1 (centres unmarked) [Example 58]
half-life ([1]; plasma): 10.8 min

CCN(CC)C(=O)COC(=O)C(C)c1ccc(-c2ccccc2)c(F)c1 (centres unmarked) [Example 59]
half-life ([1]; plasma): 4.7 min

CN(C)C(=O)COC(=O)CCC(=O)c1ccc(-c2ccccc2)cc1 [Example 60]
half-life ([1]; plasma): 9.2 min

CCN(CC)C(=O)COC(=O)CCC(=O)c1ccc(-c2ccccc2)cc1 [Example 61]
half-life ([1]; 80% plasma): 3.8 min | half-life ([1]; plasma): 3.8 min

COc1ccc2c(c1)c(CC(=O)OCC(=O)N(C)CCO)c(C)n2C(=O)c1ccc(Cl)cc1 [Example 63]
half-life ([1]; plasma): 140 min

COc1ccc2c(c1)c(CC(=O)OCC(=O)N(CCO)CCO)c(C)n2C(=O)c1ccc(Cl)cc1 [Example 64]
half-life ([1]; plasma): 88 min

Cc1c(Cl)cccc1Nc1ccccc1C(=O)OCC(=O)N(C)C [Example 65]
half-life ([1]; plasma): 2.8 min

CCN(CC)C(=O)COC(=O)c1ccccc1Nc1cccc(Cl)c1C [Example 66]
half-life ([1]; 80% plasma): 5 min | half-life ([1]; plasma): 5 min

CCN(CCO)C(=O)COC(=O)c1ccccc1Nc1cccc(Cl)c1C [Example 67]
half-life ([1]; plasma): 3 min

CCN(CC)C(=O)COC(=O)c1cc(-c2ccc(F)cc2F)ccc1O [Example 70]
half-life ([1]; plasma): 79 min

CCN(CC)C(=O)COC(=O)CC1=C(C)/C(=C/c2ccc([S+](C)[O-])cc2)c2ccc(F)cc21 (centres unmarked) [Example 73]
half-life ([1]; plasma): 26 min

CN(C)C(=O)COC(=O)c1ccccc1O [Example 79]
half-life ([1]; plasma): 0.08 min

CCN(CC)C(=O)COC(=O)c1ccccc1O [Example 80]
half-life ([1]; 80% plasma): 0.08 min | half-life ([1]; plasma): 0.08 min

COC(=O)CCC(=O)c1ccc(-c2ccccc2)cc1 [Fenbufen methyl ester, reference compound]
half-life ([1]; 80% plasma): 282 min

COC(=O)Cc1c(C)n(C(=O)c2ccc(Cl)cc2)c2ccc(OC)cc12 [Indomethacin methyl ester, reference compound]
half-life ([1]; 80% plasma): 9000 min

CC(C(=O)OCC(=O)N(C)CC(N)=O)c1cccc(C(=O)c2ccccc2)c1 (centres unmarked) [Ketoprofen (R1=CH3, R2=CH2CONH2)]
kinetics (order) of hydrolysis in human plasma [1]: first-order kinetics | half-life ([1]; plasma): 2.3 min

CCOC(=O)[C@@H](N)Cc1ccc(O)cc1 [L-Tyrosine ethyl ester, reference compound]
half-life ([1]; 80% plasma): 59 min

CCOC(=O)[C@H](C)C[C@@H](C)C(=O)N1c2ccccc2C[C@H]1C(=O)O [Pentopril]
part of oral dose deesterified in vivo to the active parent acid ([3]; oral, Rakhit & Tipnis, 1985): less than 50% | hydrolysis by plasma enzymes / stability in plasma [4]: highly stable in human plasma

CN(C)CC(=O)OCCN(C)C(=O)COC(=O)c1ccccc1 [R1=CH3, R2=CH2CH2OOCCH2N(CH3)2, n=1]
half-life ([1]; 50% plasma): 0.08 min | solubility [2]: > 200000 µg/mL

CN1CCN(C(=O)COC(=O)c2ccccc2O)CC1 [Salicylic acid]
half-life ([1]; plasma): 22 min

COC(=O)c1ccccc1Nc1cccc(Cl)c1C [Tolfenamic acid methyl ester, reference compound]
half-life ([1]; 80% plasma): 6000 min

CCN(CC)C(=O)COC(=O)Cc1ccc(C(=O)c2ccc(C)cc2)n1C [Tolmetin (R1=C2H5, R2=C2H5)]
half-life ([1]; 80% plasma): 13.4 min | half-life ([1]; plasma): 13.4 min

COC(=O)Cc1ccc(C(=O)c2ccc(C)cc2)n1C [Tolmetin methyl ester, reference compound]
half-life ([1]; 80% plasma): 1140 min

COC(=O)[C@H]1CC[C@H](CN)CC1 [Tranexamic acid methyl ester, reference compound]
half-life ([1]; 80% plasma): > 180 min
